Laboratory results from US8624022B2, “Substituted aniline derivatives” (UCB Pharma, S.A., priority 2006, dated 2014).

Columns and labels:
[1] = biological target: β-1,3-glucan synthase from Aspergillus fumigatus (Aspergillus fumigatus, UniProt Q4WLT4); test: Glucan synthase assay (membrane preparation); assay type: biochemical; settings: UDP-[3H]-glucose incorporation, 30° C., 120 minutes, read-out: A. fumigatus Glucan Synth IC50
Experimental: (§1) The glucan synthase assay follows the incorporation of tritiated UDP-glucose into acid insoluble β-glucan as catalysed by the glucan synthase activity present in membrane preparations from Candida albicans and Aspergillus fumigatus. UDP-[^3H]-glucose (ca 0.01 μCi) is added to 100 μl assay buffer (50 mM Tris-Cl, pH8.0, 8% glycerol, 1 mM EDTA, 1.5 mM KF, 1 mM DTT, 20 μM GTPγS, 600 μM UDP-glucose) and the reaction initiated by the addition of 2.5 μl of enzyme preparation.
(§2) After incubation at 30° C. for 120 minutes, 10 μl of 30 mg/ml BSA is added with mixing and the reaction is terminated with 110 μl ice-cold 20% TCA. The precipitate is collected on a GF/B filter plate and washed three times with 200 μl water. Once dry, 200 μl of Microscint20 is added to each well and the plate is read on a Top-count scintillation counter.

[2] = biological target: β-1,3-glucan synthase from Candida albicans (Candida albicans, UniProt O13428); test: Glucan synthase assay (membrane preparation); assay type: biochemical; settings: UDP-[3H]-glucose incorporation, 30° C., 120 minutes, read-out: C. albicans Glucan Synth IC50
Experimental: as §1, §2

Aspergillus fumigatus = test: Proliferation assay (growth, OD600nm); assay type: cell-based; settings: whole organism growth, OD600nm over 6 hours at 25° C.
Experimental: (§3) Overnight cultures of organism were diluted back to an OD600nm of 0.1 in fresh media. Test compounds were added in a final concentration of 0.5% DMSO and the OD600nm was followed over 6 hours incubation at 25° C. Compounds described herein were screened to determine their activity as inhibitors of β-1,3-glucan synthase from Candida albicans and Aspergillus fumigatus and for their ability to inhibit the growth of Candida albicans and Aspergillus fumigatus whole organisms.

Candida albicans = test: Proliferation assay (growth, OD600nm); assay type: cell-based; settings: whole organism growth, OD600nm over 6 hours at 25° C.
Experimental: as §3

β-1,3-glucan synthase from Candida albicans, sequence (O13428 1-1897): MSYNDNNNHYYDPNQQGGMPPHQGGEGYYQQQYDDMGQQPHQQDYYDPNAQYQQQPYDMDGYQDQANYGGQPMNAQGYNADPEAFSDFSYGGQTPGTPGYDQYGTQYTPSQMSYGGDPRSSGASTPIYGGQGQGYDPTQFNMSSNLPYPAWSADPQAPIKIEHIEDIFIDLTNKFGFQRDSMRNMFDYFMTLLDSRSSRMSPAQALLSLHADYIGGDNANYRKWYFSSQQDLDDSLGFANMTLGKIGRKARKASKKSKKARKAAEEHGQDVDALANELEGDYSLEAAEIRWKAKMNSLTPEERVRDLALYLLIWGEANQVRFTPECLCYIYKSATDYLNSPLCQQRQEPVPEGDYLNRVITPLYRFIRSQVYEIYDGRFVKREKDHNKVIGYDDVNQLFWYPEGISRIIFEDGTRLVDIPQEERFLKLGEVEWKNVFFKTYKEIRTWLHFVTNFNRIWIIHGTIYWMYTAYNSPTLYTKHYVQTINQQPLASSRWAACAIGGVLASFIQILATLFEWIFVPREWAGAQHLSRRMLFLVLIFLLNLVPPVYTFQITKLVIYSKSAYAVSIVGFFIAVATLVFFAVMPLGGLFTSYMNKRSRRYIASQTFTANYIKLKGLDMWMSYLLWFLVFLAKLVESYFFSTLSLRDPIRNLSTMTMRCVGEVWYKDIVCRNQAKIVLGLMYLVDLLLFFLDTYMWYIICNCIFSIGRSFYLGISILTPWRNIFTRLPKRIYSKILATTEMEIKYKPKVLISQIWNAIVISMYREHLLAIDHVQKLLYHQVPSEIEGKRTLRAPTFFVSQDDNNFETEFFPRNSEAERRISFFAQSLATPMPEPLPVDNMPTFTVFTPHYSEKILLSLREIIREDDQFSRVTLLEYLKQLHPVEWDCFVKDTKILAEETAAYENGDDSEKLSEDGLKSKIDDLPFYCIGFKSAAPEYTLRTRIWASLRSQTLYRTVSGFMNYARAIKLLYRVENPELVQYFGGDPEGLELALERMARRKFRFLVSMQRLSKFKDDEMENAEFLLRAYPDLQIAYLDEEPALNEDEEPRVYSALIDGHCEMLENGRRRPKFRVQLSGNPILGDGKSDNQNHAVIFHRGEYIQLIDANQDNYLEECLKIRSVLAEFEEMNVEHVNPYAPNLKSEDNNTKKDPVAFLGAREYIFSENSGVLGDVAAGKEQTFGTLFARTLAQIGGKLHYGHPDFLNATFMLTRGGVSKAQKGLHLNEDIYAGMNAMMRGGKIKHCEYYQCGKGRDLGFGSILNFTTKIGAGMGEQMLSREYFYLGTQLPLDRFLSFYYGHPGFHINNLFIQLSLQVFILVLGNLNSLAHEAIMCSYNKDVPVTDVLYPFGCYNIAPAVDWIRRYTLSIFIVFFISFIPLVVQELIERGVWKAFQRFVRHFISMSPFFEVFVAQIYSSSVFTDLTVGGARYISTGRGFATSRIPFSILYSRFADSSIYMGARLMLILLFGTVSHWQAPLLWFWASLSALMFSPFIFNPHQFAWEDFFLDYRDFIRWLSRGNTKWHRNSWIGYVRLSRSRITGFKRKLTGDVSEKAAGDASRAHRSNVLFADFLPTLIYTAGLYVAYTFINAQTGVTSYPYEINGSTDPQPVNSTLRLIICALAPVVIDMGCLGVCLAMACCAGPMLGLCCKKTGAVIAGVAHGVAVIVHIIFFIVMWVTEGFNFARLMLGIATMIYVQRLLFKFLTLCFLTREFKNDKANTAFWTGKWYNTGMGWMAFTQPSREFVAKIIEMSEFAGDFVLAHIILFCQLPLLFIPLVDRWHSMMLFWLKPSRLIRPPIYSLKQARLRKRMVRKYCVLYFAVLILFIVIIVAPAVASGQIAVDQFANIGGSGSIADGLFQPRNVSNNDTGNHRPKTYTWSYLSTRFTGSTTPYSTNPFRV
β-1,3-glucan synthase from Aspergillus fumigatus, sequence (Q4WLT4 1-1904): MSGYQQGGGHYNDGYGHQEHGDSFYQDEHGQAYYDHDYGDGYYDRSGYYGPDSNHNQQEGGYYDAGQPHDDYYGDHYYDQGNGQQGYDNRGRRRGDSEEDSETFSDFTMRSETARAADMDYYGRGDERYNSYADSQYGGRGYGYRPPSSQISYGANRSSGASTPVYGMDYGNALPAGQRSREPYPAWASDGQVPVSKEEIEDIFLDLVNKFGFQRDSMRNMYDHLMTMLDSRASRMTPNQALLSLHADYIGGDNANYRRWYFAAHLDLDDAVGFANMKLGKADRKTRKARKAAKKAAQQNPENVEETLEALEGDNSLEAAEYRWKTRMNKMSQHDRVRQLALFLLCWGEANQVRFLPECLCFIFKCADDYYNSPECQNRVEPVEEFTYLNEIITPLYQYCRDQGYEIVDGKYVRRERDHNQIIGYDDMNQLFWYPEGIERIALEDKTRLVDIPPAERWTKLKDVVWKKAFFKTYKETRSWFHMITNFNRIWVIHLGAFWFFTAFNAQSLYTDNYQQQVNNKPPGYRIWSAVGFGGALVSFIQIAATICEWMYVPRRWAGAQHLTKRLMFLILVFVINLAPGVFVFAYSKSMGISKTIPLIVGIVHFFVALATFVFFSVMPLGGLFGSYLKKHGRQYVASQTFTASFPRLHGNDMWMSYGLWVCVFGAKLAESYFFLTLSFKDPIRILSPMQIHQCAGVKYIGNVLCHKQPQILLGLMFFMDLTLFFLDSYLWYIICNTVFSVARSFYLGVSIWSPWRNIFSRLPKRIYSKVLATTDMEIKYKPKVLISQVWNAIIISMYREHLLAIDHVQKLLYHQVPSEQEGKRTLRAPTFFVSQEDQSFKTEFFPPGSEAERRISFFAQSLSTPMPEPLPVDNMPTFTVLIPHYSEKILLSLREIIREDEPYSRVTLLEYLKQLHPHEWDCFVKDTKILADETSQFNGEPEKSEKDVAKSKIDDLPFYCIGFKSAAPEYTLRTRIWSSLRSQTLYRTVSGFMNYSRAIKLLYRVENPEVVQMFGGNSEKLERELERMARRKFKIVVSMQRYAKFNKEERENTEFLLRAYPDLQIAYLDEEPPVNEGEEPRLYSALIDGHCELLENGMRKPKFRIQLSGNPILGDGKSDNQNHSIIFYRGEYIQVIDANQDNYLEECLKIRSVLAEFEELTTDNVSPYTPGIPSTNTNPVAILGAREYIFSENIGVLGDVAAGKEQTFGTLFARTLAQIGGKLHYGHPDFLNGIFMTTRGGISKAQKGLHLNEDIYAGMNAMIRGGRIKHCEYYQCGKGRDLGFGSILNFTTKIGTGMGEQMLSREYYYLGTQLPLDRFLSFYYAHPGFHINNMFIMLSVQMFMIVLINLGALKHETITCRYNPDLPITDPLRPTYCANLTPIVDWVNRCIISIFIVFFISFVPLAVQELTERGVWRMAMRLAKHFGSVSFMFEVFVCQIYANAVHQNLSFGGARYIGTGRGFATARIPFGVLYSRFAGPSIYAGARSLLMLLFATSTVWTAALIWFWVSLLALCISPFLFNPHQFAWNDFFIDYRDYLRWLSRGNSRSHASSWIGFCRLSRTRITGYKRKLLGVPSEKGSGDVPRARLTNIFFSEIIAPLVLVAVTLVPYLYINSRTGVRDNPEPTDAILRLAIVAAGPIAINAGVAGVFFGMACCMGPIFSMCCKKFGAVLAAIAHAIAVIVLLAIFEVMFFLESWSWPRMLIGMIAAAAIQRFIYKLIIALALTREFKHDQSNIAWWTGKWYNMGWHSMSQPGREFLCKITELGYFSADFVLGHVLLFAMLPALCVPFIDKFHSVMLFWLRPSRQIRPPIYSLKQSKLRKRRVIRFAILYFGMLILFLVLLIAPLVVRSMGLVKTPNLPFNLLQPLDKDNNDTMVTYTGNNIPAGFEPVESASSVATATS

Row | Structure (SMILES) | IC50 [1] | IC50 [2] | IC50 (Aspergillus fumigatus) | IC50 (Candida albicans)
1 | N[C@H]1CCN(C(=O)CN(CC(=O)NCc2cccc(Cl)c2)c2ccccc2Oc2ccccc2)C1 [OGT3935, 2-[[2-((S)-3-Aminopyrrolidin-1-yl)-2-oxo-ethyl]-(2-phenoxyphenyl)amino]-N-(3-chlorobenzyl)acetamide] | 38 µM | 12 µM | 93 µM | 55 µM
2 | N[C@H]1CCN(C(=O)CN(CC(=O)NCc2cccc(Cl)c2)c2ccc(Oc3ccccc3)cc2)C1 [OGT4154, 2-[[2-((S)-3-Aminopyrrolidin-1-yl)-2-oxo-ethyl]-(4-phenoxyphenyl)amino]-N-(3-chlorobenzyl)acetamide] |  |  | 12 µM | 22 µM
3 | N[C@H]1CCN(C(=O)CN(CC(=O)NCc2cc(F)cc(C(F)(F)F)c2)c2ccc(Oc3ccccc3)cc2)C1 [OGT4155, 2-[[2-((S)-3-Aminopyrrolidin-1-yl)-2-oxo-ethyl]-(4-phenoxyphenyl)amino]-N-[3-fluoro-5-(trifluoromethyl)benzyl]acetamide] | 5.2 µM | 5.4 µM | 14 µM | 17 µM
4 | N[C@H]1CCN(C(=O)CN(CC(=O)NCc2cc(C(F)(F)F)cc(C(F)(F)F)c2)c2cccc(Oc3ccccc3)c2)C1 [OGT4165, 2-[[2-((S)-3-Aminopyrrolidin-1-yl)-2-oxo-ethyl]-(3-phenoxyphenyl)amino]-N-[3,5-bis-(trifluoromethyl)benzyl]acetamide] | 6.2 µM | 2.7 µM | 43 µM | 19 µM
5 | N[C@H]1CCN(C(=O)CN(C(=O)/C=C/c2ccccc2)c2ccc(-c3cccc(OC(F)(F)F)c3)cc2)C1 [OGT4325, (E)-N-[2-((S)-3-Aminopyrrolidin-1-yl)-2-oxo-ethyl]-3-phenyl-N-(3′-trifluoromethoxy-biphenyl-4-yl)-acrylamide] | 15.6 µM | 8.5 µM |  | 8 µM
6 | N[C@H]1CCN(C(=O)CN(C(=O)/C=C/c2ccccc2)c2ccc(Oc3ccccc3)cc2)C1 [OGT4344, (E)-N-[2-((S)-3-Aminopyrrolidin-1-yl)-2-oxo-ethyl]-N-(4-phenoxyphenyl)-3-phenylacrylamide] | 49 µM | 34 µM | 12 µM | 27 µM
7 | CCOC(=O)c1cccc(-c2ccc(N(CC(=O)N3CC[C@H](N)C3)C(=O)/C=C/c3ccccc3)cc2)c1 [OGT4355, 4′-{[2-((S)-3-Aminopyrrolidin-1-yl)-2-oxo-ethyl]-[(E)-(3-phenylacryloyl)]-amino}-biphenyl-3-carboxylic acid, ethyl ester] |  |  | 4 µM | 18 µM
